# Assay results published in patent publication US8653110B2, “Active compound combination comprising azadirachtin and a substituted enaminocarbonyl compound” (Bayer CropScience AG, priority 2010, dated 2014).
# How the values were obtained:
# [1] = system: Trialeurodes vaporariorum; experiment: Whiteflies on tomatoes, further test (Example 6); format: in vivo
# Experimental: This example describes a further test with the formulation according to the invention against whiteflies (Trialeurodes vaporariorum) on tomatoes (Lycopersicon esculentum). The test was carried out under GEP according to EPPO guideline PP 1/36(2) with 4 repetitions of in each case 5 plants. At the start of the infection, the plants were treated as follows: • 1. untreated • 2. compound (I-1) as SL 200 (compound according to formula (I-1), 17% strength), 50 g of active compound/ha • 3. azadirachtin 15 g of active compound/ha, NeemAzal® • 4. azadirachtin 5 g of active compound/ha, NeemAzal® 5. compound (I-1) as SL 200+azadirachtin, 50+15 g of active compound/ha • 6. compound (I-1) as SL 200+azadirachtin, 50+5 g of active compound/ha • 7. positive control imidacloprid 100 g of active compound/ha
# The spray solution was prepared by mixing commercial formulations and using water to adjust to the concentration mentioned. The application rate was 1000 l/ha. 2 applications were carried out at intervals of 10 days. The number of adult flies and the number of larvae were scored on days 2 to 32 after the first application. What is shown is the effect of the products, which becomes evident in a reduction of the number of insects or larvae compared to the untreated control. Imidacloprid was also tested, as positive control.
# [2] = system: Diabrotica balteata; experiment: Diabrotica balteata test, larvae in soil (Example 4); format: in vivo; settings: soil treatment, maize, (I-1) 60 g of ai/ha, Azadirachta indica 20%, combination 60 g + 20%
# Experimental: • Solvent: 4 parts by weight of acetone • Emulsifier: 1 part by weight of alkylaryl polyglycol ether
# The active compound preparation was mixed with soil. […] The treated soil is filled into pots, and 5 maize corns are placed into each pot. 3 days after sowing, larvae of the corn rootworm (Diabrotica balteata) are placed into the treated soil.
# The efficacy is calculated from the number of maize plants that have emerged.
# [3] = system: Phaedon cochleariae; experiment: Phaedon cochleariae larvae test (Example 3); settings: cabbage leaves sprayed, (I-1) 120 g of ai/ha, Azadirachta indica 20%, combination 120 g + 20%
# [4] = system: Cyclocephala immaculata; experiment: Watering test with beetle larvae (Example 2); format: in vivo; settings: for Effect on day 1 in % / Effect on day 4 in % / Effect on day 7 in % / Effect on day 14 in %: L3 larvae, watering, (I-1) 600, azadirachtin 60, (I-1)+azadirachtin 600+60, trichlorfon 4529 g of active compound/ha
# Source text: Beetle larvae (grubs) are important lawn pests. On the one hand, they feed on grass roots, damaging them directly, on the other hand they are a favoured food for birds which, searching for grubs, destroy the turf. For treatment against grubs, infested lawns are usually watered with insecticidal compositions. This type of treatment is emulated in the laboratory by Example 2.
# To prepare a suitable active compound preparation, a commercial formulation of active compound or active compound combination is mixed with water until the desired concentration is reached. Pots with soil substrate were watered with the following active compound preparations: • 1. untreated • 2. compound (I-1) as SL 200, 600 g of active compound/ha • 3. azadirachtin, 60 g of active compound/ha • 4. compound (I-1) as SL 200+azadirachtin, 600+60 g of active compound/ha • 5. positive control: trichlorfon 4529 g of active compound/ha
# L3 larvae of Cyclocephala immaculata were placed onto the pots. After 1, 4, 7, 14 days, the survival rate was determined, and this was used to calculate the efficacy of the compositions. 100% means that all grubs were killed, 0% means no activity.
# [5] = system: Plutella xylostella; experiment: Diamondback moth bioassay on Savoy cabbage leaf discs (Example 9); format: in vivo
# Experimental: Example 9 also describes the effect of the combination according to the invention on caterpillars of diamondback moth Plutella xylostella on Savoy cabbage. The plants were grown in a greenhouse, and five plants each were treated as follows: The spray solution was prepared by mixing commercial formulations and using water to adjust to the concentration mentioned. The application rate was 1000 l/ha. • 1. untreated • 2. compound (I-1) as SL 200 (compound according to formula (I-1), 17% strength), 50 g of active compound/ha • 3. azadirachtin 30 g of active compound/ha, NeemAzal® • 4. azadirachtin 15 g of active compound/ha, NeemAzal® • 5. azadirachtin 5 g of active compound/ha, NeemAzal® • 6. compound (I-1) as SL 200+azadirachtin, 50+30 g of active compound/ha • 7. compound (I-1) as SL 200+azadirachtin, 50+15 g of active compound/ha • 8. compound (I-1) as SL 200+azadirachtin, 50+5 g of active compound/ha • 9. positive control imidacloprid 100 g of active compound/ha
# The plants were incubated under greenhouse conditions (20° C., 70% relative atmospheric humidity), the plants being placed at random. After 3 days, the first leaf samples were taken. Here, 5 leaves were picked from each plant. 10 leaf discs of a diameter of 6 cm were punched from the leaves and placed in Petri dishes covered with moistened filter paper. Once the leaf discs had been placed into the Petri dishes, 5 Plutella xylostella larvae of the L2 instar were added. The Petri dishes were placed on a tablett, covered with a dark film and kept at 20° C. in the laboratory. Evaluation was carried out on days 9, 14 and 21 after the addition of the larvae, the number of surviving animals being scored.
# What is shown is the effect of the products, which becomes evident in a reduction of the number of diamondback moths compared to the untreated control.
# [6] = Day 2, (I-1) 50, azadirachtin 15, (I-1)+azadirachtin 50+15, imidacloprid 100 g/ha
# [7] = Day 7, (I-1) 50, azadirachtin 15, (I-1)+azadirachtin 50+15, imidacloprid 100 g/ha
# [8] = Day 14, (I-1) 50, azadirachtin 15, (I-1)+azadirachtin 50+15, imidacloprid 100 g/ha
# [9] = Day 21, (I-1) 50, azadirachtin 15, (I-1)+azadirachtin 50+15, imidacloprid 100 g/ha
# [10] = Days 28-32, (I-1) 50, azadirachtin 15, (I-1)+azadirachtin 50+15, imidacloprid 100 g/ha
# [11] = Day 9, (I-1) 50, azadirachtin 30, (I-1)+azadirachtin 50+30, imidacloprid 100 g/ha
# [12] = Day 14, (I-1) 50, azadirachtin 30, (I-1)+azadirachtin 50+30, imidacloprid 100 g/ha
# [13] = Day 21, (I-1) 50, azadirachtin 30, (I-1)+azadirachtin 50+30, imidacloprid 100 g/ha
# [14] = Day 2, azadirachtin 5, (I-1)+azadirachtin 50+5 g/ha
# [15] = Day 7, azadirachtin 5, (I-1)+azadirachtin 50+5 g/ha
# [16] = Day 14, azadirachtin 5, (I-1)+azadirachtin 50+5 g/ha
# [17] = Day 21, azadirachtin 5, (I-1)+azadirachtin 50+5 g/ha
# [18] = Days 28-32, azadirachtin 5, (I-1)+azadirachtin 50+5 g/ha
SMILES,"Activity against adults [%] [1, 6]","Activity against larvae [%] [1, 6]","Activity against adults [%] [1, 7]","Activity against larvae [%] [1, 7]","Activity against adults [%] [1, 8]","Activity against larvae [%] [1, 8]","Activity against adults [%] [1, 9]","Activity against larvae [%] [1, 9]","Activity against adults [%] [1, 10]","Activity against larvae [%] [1, 10]",Effect on day 1 in % [4],Effect on day 4 in % [4],Effect on day 7 in % [4],Effect on day 14 in % [4],"Activity against Plutella xylostella [%] [5, 11]","Activity against Plutella xylostella [%] [5, 12]","Activity against Plutella xylostella [%] [5, 13]",further results
"O=C1C=C(N(Cc2ccc(Cl)nc2)CC(F)F)CO1 [(I-1), 4-{[(6-chloropyrid-3-yl)methyl](2,2-difluoroethyl)amino}furan-2(5H)-one]",86%,0%,88%,0%,93%,18%,96%,4%,67%,68%,0%,28%,0%,29%,0%,21%,34%,Kill in % after 5d (found) [2]: 75%; Kill in % after 1d (found) [3]: 15%
C/C=C(\C)C(=O)O[C@H]1C[C@@H](OC(C)=O)[C@@]2(C(=O)OC)CO[C@H]3[C@@H](O)[C@@](C)([C@]45O[C@@]4(C)[C@H]4C[C@@H]5O[C@@H]5OC=C[C@@]54O)[C@H]4[C@]1(CO[C@]4(O)C(=O)OC)[C@@H]32 [azadirachtin],57%,0%,64%,0%,65%,20%,76%,32%,76%,37%,0%,0%,0%,7%,46%,72%,25%,"Activity against adults [%] [1, 14]: 41%; Activity against larvae [%] [1, 14]: 0%; Activity against adults [%] [1, 15]: 41%; Activity against larvae [%] [1, 15]: 0%; Activity against adults [%] [1, 16]: 40%; Activity against larvae [%] [1, 16]: 0%; Activity against adults [%] [1, 17]: 47%; Activity against larvae [%] [1, 17]: 0%; Activity against adults [%] [1, 18]: 40%; Activity against larvae [%] [1, 18]: 0%; effect on grubs ([4]; entire duration of the test, azadirachtin 60 g of active compound/ha): no effect; Activity against Plutella xylostella [%] ([5]; Day 9, azadirachtin 5, (I-1)+azadirachtin 50+5 g/ha): 0%; Activity against Plutella xylostella [%] ([5]; Day 9, azadirachtin 15, (I-1)+azadirachtin 50+15 g/ha): 18%; Activity against Plutella xylostella [%] [5, 16]: 15%; Activity against Plutella xylostella [%] ([5]; Day 14, azadirachtin 15, (I-1)+azadirachtin 50+15 g/ha): 31%; Activity against Plutella xylostella [%] [5, 17]: 25%; Activity against Plutella xylostella [%] ([5]; Day 21, azadirachtin 15, (I-1)+azadirachtin 50+15 g/ha): 38%"
O=[N+]([O-])NC1=NCCN1Cc1ccc(Cl)nc1 [imidacloprid],91%,0%,96%,57%,98%,70%,99%,68%,91%,94%,–,–,–,–,43%,36%,41%,–
